# Results published in patent US12377104B1, “Methods for treating a fatty liver disease” (Madrigal Pharmaceuticals, Inc., priority 2024, dated 2025).
# Test system: NASH patients
# Assay: MAESTRO-NASH: efficacy by baseline body weight and BMI
# Format: in vivo, human
# Details: for ≥30% Reduction in MRI-PDFF at Week 52, Assessment (%) / ≥120% Increase in SHBG at Week 52, Assessment (%): post hoc
# Description: In the MAESTRO-NASH study, randomization to 80 mg and 100 mg doses was equal across all body weights. Analyses were conducted to provide additional evidence of a relationship between resmetirom dose, baseline body weight and body mass index (BMI), and safety/efficacy readouts. […] The only variable that determined exposure to resmetirom in the NASH population was body weight. […] Study median body weight was 100 kg. […] et al. (2024). CAP was stable over time, both doses showing a similar durable response (FIG. 30B).
smiles,measurement,setting,value
"CC(C)c1cc(Oc2c(Cl)cc(-n3nc(C#N)c(=O)[nH]c3=O)cc2Cl)n[nH]c1=O [Resmetirom, 2-(3,5-dichloro-4-((5-isopropyl-6-oxo-1,6-dihydropyridazin-3-yl)oxy)phenyl)-3,5-dioxo-2,3,4,5-tetrahydro-1,2,4-triazine-6-carbonitrile]",Discontinued Study Prior to Week 52: number,"80 mg, 80-<90 kg",6
same,Discontinued Study Prior to Week 52: percentage (in parentheses),"80 mg, 80-<90 kg",(10.3)
same,Week 52 MITT Consensus Fibrosis Improvement Responder: number,"80 mg, 80-<90 kg",20
same,Week 52 MITT Consensus Fibrosis Improvement Responder: percentage (in parentheses),"80 mg, 80-<90 kg",(34.5)
same,Week 52 MITT Consensus NASH Resolution Responder: number,"80 mg, 80-<90 kg",17
same,Week 52 MITT Consensus NASH Resolution Responder: percentage (in parentheses),"80 mg, 80-<90 kg",(29.3)
same,Week 52 Paired Biopsies Consensus Fibrosis Improvement Responder: number,"80 mg, 80-<90 kg",20
same,Week 52 Paired Biopsies Consensus Fibrosis Improvement Responder: percentage (in parentheses),"80 mg, 80-<90 kg",(40.8)
same,Week 52 Paired Biopsies Consensus NASH Resolution Responder: number,"80 mg, 80-<90 kg",17
same,Week 52 Paired Biopsies Consensus NASH Resolution Responder: percentage (in parentheses),"80 mg, 80-<90 kg",(34.7)
same,≥30% reduction in MRI-PDFF at Week 52: number of patients,"80 mg, 80-<90 kg",28
same,≥30% reduction in MRI-PDFF at Week 52: percentage of patients (in parentheses),"80 mg, 80-<90 kg",(63.6)
same,≥120% increase in SHBG at Week 52: number of patients,"80 mg, 80-<90 kg",30
same,≥120% increase in SHBG at Week 52: percentage of patients (in parentheses),"80 mg, 80-<90 kg",(56.6)
same,Discontinued Study Prior to Week 52: number,"80 mg, 90-<100 kg",6
same,Discontinued Study Prior to Week 52: percentage (in parentheses),"80 mg, 90-<100 kg",(10.2)
same,Week 52 MITT Consensus Fibrosis Improvement Responder: number,"80 mg, 90-<100 kg",15
same,Week 52 MITT Consensus Fibrosis Improvement Responder: percentage (in parentheses),"80 mg, 90-<100 kg",(25.4)
same,Week 52 MITT Consensus NASH Resolution Responder: number,"80 mg, 90-<100 kg",15
same,Week 52 MITT Consensus NASH Resolution Responder: percentage (in parentheses),"80 mg, 90-<100 kg",(25.4)
same,Week 52 Paired Biopsies Consensus Fibrosis Improvement Responder: number,"80 mg, 90-<100 kg",15
same,Week 52 Paired Biopsies Consensus Fibrosis Improvement Responder: percentage (in parentheses),"80 mg, 90-<100 kg",(30.6)
same,Week 52 Paired Biopsies Consensus NASH Resolution Responder: number,"80 mg, 90-<100 kg",15
same,Week 52 Paired Biopsies Consensus NASH Resolution Responder: percentage (in parentheses),"80 mg, 90-<100 kg",(30.6)
same,≥30% reduction in MRI-PDFF at Week 52: number of patients,"80 mg, 90-<100 kg",28
same,≥30% reduction in MRI-PDFF at Week 52: percentage of patients (in parentheses),"80 mg, 90-<100 kg",(62.2)
same,≥120% increase in SHBG at Week 52: number of patients,"80 mg, 90-<100 kg",28
same,≥120% increase in SHBG at Week 52: percentage of patients (in parentheses),"80 mg, 90-<100 kg",(52.8)
same,Discontinued Study Prior to Week 52: number,"80 mg, 100-<110 kg",3
same,Discontinued Study Prior to Week 52: percentage (in parentheses),"80 mg, 100-<110 kg",(6.5)
same,Week 52 MITT Consensus Fibrosis Improvement Responder: number,"80 mg, 100-<110 kg",8
same,Week 52 MITT Consensus Fibrosis Improvement Responder: percentage (in parentheses),"80 mg, 100-<110 kg",(17.4)
same,Week 52 MITT Consensus NASH Resolution Responder: number,"80 mg, 100-<110 kg",13
same,Week 52 MITT Consensus NASH Resolution Responder: percentage (in parentheses),"80 mg, 100-<110 kg",(28.3)
same,Week 52 Paired Biopsies Consensus Fibrosis Improvement Responder: number,"80 mg, 100-<110 kg",8
same,Week 52 Paired Biopsies Consensus Fibrosis Improvement Responder: percentage (in parentheses),"80 mg, 100-<110 kg",(22.2)
same,Week 52 Paired Biopsies Consensus NASH Resolution Responder: number,"80 mg, 100-<110 kg",13
same,Week 52 Paired Biopsies Consensus NASH Resolution Responder: percentage (in parentheses),"80 mg, 100-<110 kg",(36.1)
same,≥30% reduction in MRI-PDFF at Week 52: number of patients,"80 mg, 100-<110 kg",23
same,≥30% reduction in MRI-PDFF at Week 52: percentage of patients (in parentheses),"80 mg, 100-<110 kg",(67.6)
same,≥120% increase in SHBG at Week 52: number of patients,"80 mg, 100-<110 kg",14
same,≥120% increase in SHBG at Week 52: percentage of patients (in parentheses),"80 mg, 100-<110 kg",(34.1)
same,Discontinued Study Prior to Week 52: number,"80 mg, <80 kg",6
same,Discontinued Study Prior to Week 52: percentage (in parentheses),"80 mg, <80 kg",(10.0)
same,Week 52 MITT Consensus Fibrosis Improvement Responder: number,"80 mg, <80 kg",17
same,Week 52 MITT Consensus Fibrosis Improvement Responder: percentage (in parentheses),"80 mg, <80 kg",(28.3)
same,Week 52 MITT Consensus NASH Resolution Responder: number,"80 mg, <80 kg",15
same,Week 52 MITT Consensus NASH Resolution Responder: percentage (in parentheses),"80 mg, <80 kg",(25.0)
same,Week 52 Paired Biopsies Consensus Fibrosis Improvement Responder: number,"80 mg, <80 kg",17
same,Week 52 Paired Biopsies Consensus Fibrosis Improvement Responder: percentage (in parentheses),"80 mg, <80 kg",(34.7)
same,Week 52 Paired Biopsies Consensus NASH Resolution Responder: number,"80 mg, <80 kg",15
same,Week 52 Paired Biopsies Consensus NASH Resolution Responder: percentage (in parentheses),"80 mg, <80 kg",(30.6)
same,≥30% reduction in MRI-PDFF at Week 52: number of patients,"80 mg, <80 kg",34
same,≥30% reduction in MRI-PDFF at Week 52: percentage of patients (in parentheses),"80 mg, <80 kg",(73.9)
same,≥120% increase in SHBG at Week 52: number of patients,"80 mg, <80 kg",39
same,≥120% increase in SHBG at Week 52: percentage of patients (in parentheses),"80 mg, <80 kg",(72.2)
same,"≥30% Reduction in MRI-PDFF at Week 52, Assessment (%)","80 mg, body weight >100 kg",56.7%
same,"≥120% Increase in SHBG at Week 52, Assessment (%)","80 mg, body weight >100 kg",29.6%
same,"≥30% Reduction in MRI-PDFF at Week 52, Assessment (%)","80 mg, body weight ≤100 kg",66.9%
same,"≥120% Increase in SHBG at Week 52, Assessment (%)","80 mg, body weight ≤100 kg",60.9%
same,Discontinued Study Prior to Week 52: number,"80 mg, ≥110 kg",19
same,Discontinued Study Prior to Week 52: percentage (in parentheses),"80 mg, ≥110 kg",(19.2)
same,Week 52 MITT Consensus Fibrosis Improvement Responder: number,"80 mg, ≥110 kg",17
same,Week 52 MITT Consensus Fibrosis Improvement Responder: percentage (in parentheses),"80 mg, ≥110 kg",(17.2)
same,Week 52 MITT Consensus NASH Resolution Responder: number,"80 mg, ≥110 kg",17
same,Week 52 MITT Consensus NASH Resolution Responder: percentage (in parentheses),"80 mg, ≥110 kg",(17.2)
same,Week 52 Paired Biopsies Consensus Fibrosis Improvement Responder: number,"80 mg, ≥110 kg",17
same,Week 52 Paired Biopsies Consensus Fibrosis Improvement Responder: percentage (in parentheses),"80 mg, ≥110 kg",(22.7)
same,Week 52 Paired Biopsies Consensus NASH Resolution Responder: number,"80 mg, ≥110 kg",17
same,Week 52 Paired Biopsies Consensus NASH Resolution Responder: percentage (in parentheses),"80 mg, ≥110 kg",(22.7)
same,≥30% reduction in MRI-PDFF at Week 52: number of patients,"80 mg, ≥110 kg",33
same,≥30% reduction in MRI-PDFF at Week 52: percentage of patients (in parentheses),"80 mg, ≥110 kg",(51.6)
same,≥120% increase in SHBG at Week 52: number of patients,"80 mg, ≥110 kg",21
same,≥120% increase in SHBG at Week 52: percentage of patients (in parentheses),"80 mg, ≥110 kg",(28.0)
same,Discontinued Study Prior to Week 52: number,"100 mg, 80-<90 kg",4
same,Discontinued Study Prior to Week 52: percentage (in parentheses),"100 mg, 80-<90 kg",(8.2)
same,Week 52 MITT Consensus Fibrosis Improvement Responder: number,"100 mg, 80-<90 kg",13
same,Week 52 MITT Consensus Fibrosis Improvement Responder: percentage (in parentheses),"100 mg, 80-<90 kg",(26.5)
same,Week 52 MITT Consensus NASH Resolution Responder: number,"100 mg, 80-<90 kg",16
same,Week 52 MITT Consensus NASH Resolution Responder: percentage (in parentheses),"100 mg, 80-<90 kg",(32.7)
same,Week 52 Paired Biopsies Consensus Fibrosis Improvement Responder: number,"100 mg, 80-<90 kg",13
same,Week 52 Paired Biopsies Consensus Fibrosis Improvement Responder: percentage (in parentheses),"100 mg, 80-<90 kg",(31.7)
